Assay results: paper PMC9935382, “Sorting nexin-dependent therapeutic targeting of oncogenic epidermal growth factor receptor” (Cancer Gene Therapy, 2022)
“Also recorded” adds a separate entry of the source. One block for each molecule: values may come before it.

Columns and labels:
[1] = biological target: EGFR kinase domain protein (EGFRkin), residues 672-998 with N-terminal His-tag (human); test: MST; His-EGFRkin (50 nM) labelled through the His-tag with RED-tris-NTA 2nd Generation dye; SNX peptides or SNX-BAR protein titrated, 16 1:1 serial dilutions from 20 uM in PBS-T; room temperature; Monolith NT.115 pico
MCF10A cells = test: MTT cell viability, MCF10A; type: cell-based; details: immortalized breast epithelial line, 3 days
Protocol: (§1) 2 × 10^3 cells were plated per well in a 96 well plate and left to adhere overnight. The following day, drug treatments were started and continued for 3 days. To measure the viability of the remaining cell population, 10% 3-(4,5-dimethylthiazol-2-yl)-2,5-diphenyltetrazolium (MTT) in media was added and incubated for 2 hours and conversion of MTT to formazan at 540 nm using a biotech Synergy LX plate reader.
(§2) A–G Cells were plated in a 96-well plate at 2000 cells per well. […] Cell viability was then measured with an MTT assay, viability of treated cells were compared with the vehicle control. H MDA-MB-468 cells were plated and incubated+/− IPTG for 2 days prior to drug treatment to induce expression of an EGFR-targeted shRNA.

CHO cells = test: MTT cell viability, CHO; type: cell-based, Chinese hamster; details: CHO cells lack EGFR expression, 3 days
Protocol: as §1, §2
Supplementary Figure 1. A. BT20 triple negative breast cancer cells were treated with SNX1.1, 1.2, or 1.3 for 3 days and their viability was measured via MTT analysis. B. CHO cells were treated with PTD4 or SNX1.3 for 3 days and their viability was measured via MTT analysis.

MDA-MB-231 cells = details: previously characterized; no reference given; cited from earlier work
T47D cells = details: previously characterized; no reference given; cited from earlier work
[2] = biological target: T1, EGFR kinase domain (residues 672–998) (Homo sapiens, UniProt P00533); test: Microscale thermophoresis (MST) binding to EGFRkin; details: MST, His-EGFRkin 50 nM (RED-tris-NTA dye) titrated with ligand, 16 1:1 serial dilutions from 20 μM, PBS-T, room temperature
T1 construct: baculovirus insect cell expression system (residues 672–998 with N-terminal His-tag followed by TEV cleavage site); made in house; host or cells: Sf9 insect cells (Bac-to-Bac baculovirus, pFastBacHT)
Protocol: Briefly pFastBacHT plasmid containing the cDNA of EGFR kinase domain with N-terminal His-tag was transformed into DH10Bac E. coli to generate bacmid DNA. P1 virus was generated by transfecting 2.0 mL of sf9 cells at 1.0 million cells/ml density with the purified bacmid DNA (200–3000 ng/μL). The P1 virus was harvested after 5–7 days following transfection. The P1 virus was diluted 100-fold into an sf9 cell culture at a density of 2.0 million cells/ml and cultured for 3 days. Supernatant containing the P2 virus was collected by centrifugation and diluted 40-fold into 1.0 L of sf9 cells at a density of 2.0 million cells/ml. After 2.5–3 days, cell pellets were harvested by centrifugation at 3500 x g at 4 °C for 20 min, and flash frozen in liquid nitrogen prior to storage at −80 °C.
To purify the EGFR kinase domain, Sf9 cell pellets (~10 g) was thawed on ice and homogenized with 2 passages on an EmulsiFlex-C5 (Avestin) in 50 mL of lysis buffer (50 mM Tris pH 7.5, 600 mM NaCl, 1 mM EDTA, 1 mM TCEP, protease inhibitors, DNAase, and 10% Glycerol). The lysate was centrifugated and supernatant was collected and loaded onto a 1.0 mL HisTrap FF column (GE) at a flow rate of 1.0 ml/min. Following loading, the column was washed with 20 column volumes of wash buffer (50 mM Tris pH 7.5, 600 mM NaCl, 20 mM Imidazole, 1 mM TCEP, and 10% Glycerol) and eluted with a linear gradient of elution buffers containing 20 and 300 mM imidazole. Fractions containing the EGFR kinase domain proteins were combined and concentrated to less than 1.0 mL. The concentrated proteins were loaded onto a Superdex 200 10/300 GL column (GE) equilibrated in buffer (20 mM Tris pH 7.5, 100 mM NaCl) for further purification. The purified proteins were concentrated, flash frozen in liquid nitrogen, and stored at −80 °C.
MST experiments were carried out using a Monolith NT.115 pico instrument (NanoTemper Technologies, Munich Germany). […] Kd values were derived from the concentration-dependent changes in normalized fluorescence (Fnorm). Data were analyzed using NanoTemper MO. […]

Molecule: CNC(=O)CN1CCC(Oc2cc3c(Nc4cccc(Cl)c4F)ncnc3cc2OC)CC1 [Sapitinib]
impact on cell viability / growth (MCF10A cells): more effective at inhibiting cell growth in immortalized cells than in cancer cells; also recorded: significantly reduces viability of normal cells | impact on cell viability / growth (CHO cells): more effective at inhibiting cell growth in immortalized cells than in cancer cells

Molecule: C#Cc1cccc(Nc2ncnc3cc(OCCOC)c(OCCOC)cc23)c1 [erlotinib]
resistance to erlotinib (MDA-MB-231 cells): resistant | resistance to erlotinib (T47D cells): resistant

Next, values leading:

Kd [1]: 3000 nM
Molecule: human SNX-BAR protein (SNX1 BAR domain, residues 301-522) (from UniProt Q13596 301-522) (domain or fragment)

Kd [2]: 3000 nM | Kd ([2]; listed as SNX1 Bar): 2900 ± 1700 nM
B1: BAR domain: human SNX1 BAR domain, residues 301–522, expressed in E. coli (protein)
chain: KMNESDIWFEEKLQEVECEEQRLRKLHAVVETLVNHRKELALNTAQFAKSLAMLGSSEDNTALSRALSQLAEVEEKIEQLHQEQANNDFFLLAELLSDYIRLLAIVRAAFDQRMKTWQRWQDAQATLQKKREAEARLLWANKPDKLQQAKDEILEWESRVTQYERDFERISTVVRKEVIRFEKEKSKDFKNHVIKYLETLLYSQQQLAKYWEAFLPEAKAIS
modifications: left off: MBP, N-terminal, cleaved
notes: human SNX1 BAR domain, residues 301–522, expressed in E. coli
